Each structure is given as a SMILES string.

The source of these data is patent US8450320B2, “Pyrrolopyrazinone inhibitors of kinases” (AbbVie Inc., priority 2010, dated 2013).

This experiment concerns the target T1, Cdc7 (BEV coexpressed huCDC7/DBF4) (Homo sapiens, UniProt O00311).
T1 construct: made in house; host or cells: BEV (baculovirus expression vector)
The experiment can be described thus: Cdc7 enzyme inhibition assay ([33P]-ATP, biotinylated peptide substrate, FlashPlate). It is filed as biochemical. The following applies: Ki generated from IC50 assuming ATP-competitive inhibition; 1 μM ATP, apparent ATP Km 0.7 μM. On the procedure: This example describes the assays that may be used to identify compounds having kinase activity.
Cdc7 (BEV coexpressed huCDC7/DBF4) is prepared internally. Cdc7 assays are conducted as follows with final concentrations as listed. In 384-well v-bottom polypropylene plates, 6 μL compound (2% DMSO), is mixed with 6 μL of Cdc7 (2 ug/mL), and Jerini peptide substrate A-All (biotin-C6linker-TPSDSLIYDDGLS) (2 μM), followed by immediate initiation with 6 μL […] (1 μM, 20 mCi/μmol) using a reaction buffer comprising 25 mM HEPES, pH 7.5, 1 mM DTT, 10 mM MgCl2, 100 μM Na3VO4, 0.075 mg/ml Triton X-100. Reactions are quenched after 1 hr by the addition of 90 μL stop buffer (50 mM EDTA, 2M NaCl). 85 μL of the stopped reactions are transferred to 384-well streptavidin-coated plates (FlashPlate Plus, Perkin Elmer), incubated 30 minutes at room temperature and washed 3 times with 0.05% Tween-20/PBS using an ELX-405 automated plate washer (BioTek), and counted on a TopCount Scintillation Plate Reader (Packard). IC50 values are determined via non-linear regression fitting of enzyme inhibition data and corresponding Ki values are generated assuming ATP-competitive (equilibrium) inhibition and using the experimentally determined apparent ATP Km of 0.7 μM (as determined using the above assay condition, but varying ATP).
Table 1 depicts enzyme inhibition data (Ki) for exemplary compounds. In Table 1, “A” represents a Ki of less than 10 nM, “B” represents a Ki of between 10 nM and 100 nM, and “C” represents a Ki of greater than 100 nM.

T1 sequence (O00311 whole entry): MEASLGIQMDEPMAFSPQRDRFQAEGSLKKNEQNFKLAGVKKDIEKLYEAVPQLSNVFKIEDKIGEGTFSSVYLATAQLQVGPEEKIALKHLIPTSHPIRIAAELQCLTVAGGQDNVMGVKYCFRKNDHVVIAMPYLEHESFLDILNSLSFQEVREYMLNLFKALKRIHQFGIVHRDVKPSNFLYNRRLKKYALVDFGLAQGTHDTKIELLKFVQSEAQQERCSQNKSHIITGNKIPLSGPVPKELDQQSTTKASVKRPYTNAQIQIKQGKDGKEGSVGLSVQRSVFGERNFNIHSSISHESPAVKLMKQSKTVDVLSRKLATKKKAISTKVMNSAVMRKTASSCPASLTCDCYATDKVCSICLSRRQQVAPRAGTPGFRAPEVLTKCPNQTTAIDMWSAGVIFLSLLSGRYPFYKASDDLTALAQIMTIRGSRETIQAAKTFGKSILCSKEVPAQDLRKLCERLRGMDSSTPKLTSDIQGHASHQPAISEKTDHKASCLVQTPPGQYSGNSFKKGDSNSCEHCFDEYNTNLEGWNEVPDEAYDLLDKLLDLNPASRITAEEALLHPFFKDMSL
T1 sequence (Q9UBU7 whole entry partner): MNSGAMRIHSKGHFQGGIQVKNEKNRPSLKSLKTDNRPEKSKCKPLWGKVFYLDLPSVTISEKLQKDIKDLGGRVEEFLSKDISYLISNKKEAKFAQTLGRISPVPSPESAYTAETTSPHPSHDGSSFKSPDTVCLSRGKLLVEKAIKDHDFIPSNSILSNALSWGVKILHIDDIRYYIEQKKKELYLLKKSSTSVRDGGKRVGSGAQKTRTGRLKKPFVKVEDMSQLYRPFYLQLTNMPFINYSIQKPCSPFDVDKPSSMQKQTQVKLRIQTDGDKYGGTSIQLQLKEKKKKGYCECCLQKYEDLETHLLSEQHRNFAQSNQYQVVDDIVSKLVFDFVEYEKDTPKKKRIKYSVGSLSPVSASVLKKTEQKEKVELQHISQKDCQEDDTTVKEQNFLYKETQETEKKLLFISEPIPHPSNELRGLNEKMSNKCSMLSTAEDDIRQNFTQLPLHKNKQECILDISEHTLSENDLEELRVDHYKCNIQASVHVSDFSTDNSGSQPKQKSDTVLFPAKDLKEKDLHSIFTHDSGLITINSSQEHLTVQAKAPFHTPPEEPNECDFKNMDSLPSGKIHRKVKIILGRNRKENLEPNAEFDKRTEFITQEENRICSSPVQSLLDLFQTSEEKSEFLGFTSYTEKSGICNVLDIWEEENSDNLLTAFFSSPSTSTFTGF

As for `O=C(Nc1ccc(Cc2c[nH]c(=O)c3cc(-c4c[nH]c5ncccc45)cn23)cc1)c1ccco1` [Example 26, N-(4-{[1-oxo-7-(1H-pyrrolo[2,3-b]pyridin-3-yl)-1,2-dihydropyrrolo[1,2-a]pyrazin-4-yl]methyl}phenyl)-2-furamide], the Ki was below 10 nM. For `O=c1[nH]cc(Cc2cccc(N(C3CCC3)C3CCC3)c2)n2cc(-c3c[nH]c4ncccc34)cc12` [Example 27, 4-[3-(dicyclobutylamino)benzyl]-7-(1H-pyrrolo[2,3-b]pyridin-3-yl)pyrrolo[1,2-a]pyrazin-1(2H)-one], the Ki lay in the range of 10 to 100 nM. Under `O=C(Nc1ccc(Cc2c[nH]c(=O)c3cc(-c4c[nH]c5ncccc45)cn23)cc1)c1cccnc1` [Example 28, N-(4-{[1-oxo-7-(1H-pyrrolo[2,3-b]pyridin-3-yl)-1,2-dihydropyrrolo[1,2-a]pyrazin-4-yl]methyl}phenyl)nicotinamide] stands below 10 nM; under `O=c1[nH]cc(Cc2ccc(CNS(=O)(=O)C3CC3)cc2)n2cc(-c3c[nH]c4ncccc34)cc12` [Example 29, N-(4-{[1-oxo-7-(1H-pyrrolo[2,3-b]pyridin-3-yl)-1,2-dihydropyrrolo[1,2-a]pyrazin-4-yl]methyl}benzyl)cyclopropanesulfonamide], below 10 nM. Under `O=c1[nH]cc(Cc2ccc(CN(C3CCC3)C3CCC3)cc2)n2cc(-c3c[nH]c4ncccc34)cc12` [Example 30, 4-{4-[(dicyclobutylamino)methyl]benzyl}-7-(1H-pyrrolo[2,3-b]pyridin-3-yl)pyrrolo[1,2-a]pyrazin-1(2H)-one] stands 10 to 100 nM; under `CS(=O)(=O)NCc1ccc(Cc2c[nH]c(=O)c3cc(-c4c[nH]c5ncccc45)cn23)cc1` [Example 31, N-(4-{[1-oxo-7-(1H-pyrrolo[2,3-b]pyridin-3-yl)-1,2-dihydropyrrolo[1,2-a]pyrazin-4-yl]methyl}benzyl)methanesulfonamide], below 10 nM. Turning to `CC(C)N1CCC(Nc2ccc(Cc3c[nH]c(=O)c4cc(-c5c[nH]c6ncccc56)cn34)cc2)CC1` [Example 32, 4-{4-[(1-isopropylpiperidin-4-yl)amino]benzyl}-7-(1H-pyrrolo[2,3-b]pyridin-3-yl)pyrrolo[1,2-a]pyrazin-1(2H)-one], the Ki is below 10 nM. As to `CN(C)CC(=O)Nc1cccc(Cc2c[nH]c(=O)c3cc(-c4c[nH]c5ncccc45)cn23)c1` [Example 33, N^2,N^2-dimethyl-N-(3-{[1-oxo-7-(1H-pyrrolo[2,3-b]pyridin-3-yl)-1,2-dihydropyrrolo[1,2-a]pyrazin-4-yl]methyl}phenyl)glycinamide], the Ki is below 10 nM. Under `CN(C)CC(=O)NCc1ccc(Cc2c[nH]c(=O)c3cc(-c4c[nH]c5ncccc45)cn23)cc1` [Example 34, N^2,N^2-dimethyl-N-(4-{[1-oxo-7-(1H-pyrrolo[2,3-b]pyridin-3-yl)-1,2-dihydropyrrolo[1,2-a]pyrazin-4-yl]methyl}benzyl)glycinamide] stands below 10 nM; under `CCC(CC)Nc1ccc(Cc2c[nH]c(=O)c3cc(-c4c[nH]c5ncccc45)cn23)cc1` [Example 35, 4-[4-(pentan-3-ylamino)benzyl]-7-(1H-pyrrolo[2,3-b]pyridin-3-yl)pyrrolo[1,2-a]pyrazin-1(2H)-one], 10 to 100 nM. Consider `CN(C)Cc1ccc(Cc2c[nH]c(=O)c3cc(-c4c[nH]c5ncccc45)cn23)cc1` [Example 36, 4-{4-[(dimethylamino)methyl]benzyl}-7-(1H-pyrrolo[2,3-b]pyridin-3-yl)pyrrolo[1,2-a]pyrazin-1(2H)-one], for which the Ki was below 10 nM. As for `NCc1ccc(Cc2c[nH]c(=O)c3cc(-c4c[nH]c5ncccc45)cn23)cc1` [Example 37, 4-[4-(aminomethyl)benzyl]-7-(1H-pyrrolo[2,3-b]pyridin-3-yl)pyrrolo[1,2-a]pyrazin-1(2H)-one], the Ki was below 10 nM. For the compound `CS(=O)(=O)Nc1ccc(Cc2c[nH]c(=O)c3cc(-c4c[nH]c5ncccc45)cn23)cc1` [Example 38, N-(4-{[1-oxo-7-(1H-pyrrolo[2,3-b]pyridin-3-yl)-1,2-dihydropyrrolo[1,2-a]pyrazin-4-yl]methyl}phenyl)methanesulfonamide], the Ki was below 10 nM. Under `CC(Nc1ccc(Cc2c[nH]c(=O)c3cc(-c4c[nH]c5ncccc45)cn23)cc1)C1CC1` (centres unmarked) [Example 39, 4-{4-[(1-cyclopropylethyl)amino]benzyl}-7-(1H-pyrrolo[2,3-b]pyridin-3-yl)pyrrolo[1,2-a]pyrazin-1(2H)-one] stands below 10 nM. In the case of `CN1CCCC(C(=O)Nc2ccc(Cc3c[nH]c(=O)c4cc(-c5c[nH]c6ncccc56)cn34)cc2)C1` (centres unmarked) [Example 40, 1-methyl-N-(4-{[1-oxo-7-(1H-pyrrolo[2,3-b]pyridin-3-yl)-1,2-dihydropyrrolo[1,2-a]pyrazin-4-yl]methyl}phenyl)piperidine-3-carboxamide] it was below 10 nM; in that of `CN(C)c1cccc(Cc2c[nH]c(=O)c3cc(-c4c[nH]c5ncccc45)cn23)c1` [Example 41, 4-[3-(dimethylamino)benzyl]-7-(1H-pyrrolo[2,3-b]pyridin-3-yl)pyrrolo[1,2-a]pyrazin-1(2H)-one], below 10 nM; in that of `O=C(Nc1ccc(Cc2c[nH]c(=O)c3cc(-c4c[nH]c5ncccc45)cn23)cc1)c1ccccc1` [Example 42, N-(4-{[1-oxo-7-(1H-pyrrolo[2,3-b]pyridin-3-yl)-1,2-dihydropyrrolo[1,2-a]pyrazin-4-yl]methyl}phenyl)benzamide], below 10 nM. In the case of `CS(=O)(=O)Nc1ccc(C(=O)c2c[nH]c(=O)c3cc(-c4c[nH]c5ncccc45)cn23)cc1` [Example 43, N-(4-{[1-oxo-7-(1H-pyrrolo[2,3-b]pyridin-3-yl)-1,2-dihydropyrrolo[1,2-a]pyrazin-4-yl]carbonyl}phenyl)methanesulfonamide] it was below 10 nM; in that of `NC1CCC(NCc2ccc(Cc3c[nH]c(=O)c4cc(-c5c[nH]c6ncccc56)cn34)cc2)CC1` (centres unmarked) [Example 44, 4-(4-{[(4-aminocyclohexyl)amino]methyl}benzyl)-7-(1H-pyrrolo[2,3-b]pyridin-3-yl)pyrrolo[1,2-a]pyrazin-1(2H)-one], below 10 nM; in that of `CC(=O)NCc1ccc(Cc2c[nH]c(=O)c3cc(-c4c[nH]c5ncccc45)cn23)cc1` [Example 45, N-(4-{[1-oxo-7-(1H-pyrrolo[2,3-b]pyridin-3-yl)-1,2-dihydropyrrolo[1,2-a]pyrazin-4-yl]methyl}benzyl)acetamide], above 100 nM.
